Literature values as cited in article PMC9729727, “The effect of food on the pharmacokinetics of WXFL10203614, a potential selective JAK1 inhibitor, in healthy Chinese subjects” (Frontiers in Pharmacology, 2022).
Like-named read-outs stand apart in the source and are kept apart here.

Settings: for Effect of the fed state on Cmax: ref Lamba et al., 2016, Shibata et al., 2021; for Effect of food on AUC / Effect of food on Cmax: ref Shi et al., 2011, Mohamed et al., Anderson et al.
[1] = 3 mg immediate-release capsules, high-fat meal vs fasted, ref Mohamed et al., 2017

Row | Compound | Effect of the fed state on Cmax | Effect of food on AUC (2017, 2019) | Effect of food on Cmax (2017, 2019) | other results
1 | NC(=O)c1cnc2[nH]ccc2c1N[C@@H]1[C@@H]2CC3C[C@H]1C[C@@](O)(C3)C2 [peficitinib] | elevated | – | – | –
2 | C[C@@H]1CCN(C(=O)CC#N)C[C@@H]1N(C)c1ncnc2[nH]ccc12 [tofacitinib] | elevated | – | – | –
3 | O=C(Nc1nc2cccc(-c3ccc(CN4CCS(=O)(=O)CC4)cc3)n2n1)C1CC1 [filgotinib] | – | little effect | partly reduced | Effect of meals on systemic exposure (high- and low-fat meals, ref Anderson et al., 2019): little effect; Decrease of Cmax by meal (high-fat meal, ref Anderson et al., 2019): 20%; Decrease of Cmax by meal (low-fat meal, ref Anderson et al., 2019): 11%
4 | CC[C@@H]1CN(C(=O)NCC(F)(F)F)C[C@@H]1c1cnc2cnc3[nH]ccc3n12 [upadacitinib] | – | little effect | partly reduced | Decrease of Cmax after a high-fat meal [1]: 23%; Effect of a high-fat meal on AUC [1]: not impacted
5 | N#CC[C@H](C1CCCC1)n1cc(-c2ncnc3[nH]ccc23)cn1 [INCB018424] | – | little effect | partly reduced | –
